Measured values reported in patent US8647824B2, “Microbial reductive dehalogenation of vinyl chloride” (The Board of Trustees of the Leland Stanford Junior …, priority 2004, dated 2014).
Values joined by “and” are separate entries in the source; they are usually repeats but may differ in a detail not shown here. Equal values may be shown once. Marks after values point to notes of the source that are not given here.

Legend:
[1] = system: Victoria mixed culture, containing strain VS; assay: Batch dechlorination and growth kinetics, Victoria mixed culture; assay type: cell-based, Dehalococcoides species strain VS; settings: for Maximum Growth Rate: VS Mixed (Victoria) culture, 95% confidence interval, least-squares model fit
Excerpt: (§1) Stock cultures. The Victoria mixed culture, containing strain VS, was maintained in a closed continuously stirred tank reactor (CSTR) as previously described. A VC enrichment of this culture, maintained over 5 years, was also used in these investigations. Liquid cultures of the three other cultures evaluated (Pinellas, KB-1/VC, and Dehalococcoides ethenogenes strain 195) were kept in anaerobic bottles, stored in an anaerobic chamber (10% H2, 10% CO2, 80% N2). The bottles were amended with TCE (1-3 μL neat liquid), VC (250 μL gas), and PCE (1-3 μL neat liquid) being added to each, respectively, approximately every two weeks.
(§2) Batch studies. For the experimental portion of this research, two studies were undertaken, one a comparative VC growth study, and the other a comparative growth and substrate utilization study with different chlorinated ethenes. These studies compared the dechlorination abilities of Dehalococcoides ethenogenes strain 195 and the Dehalococcoides-like microorganisms in the three mixed cultures (Victoria, KB-1/VC, and Pinellas).
(§3) For the first study, a VC enriched inoculum was first developed for each of the three mixed cultures. Here, bottles (120 mL) were filled with 60 mL of anaerobic media in an anaerobic chamber as previously described, and inoculated with 200 μL of each stock culture. Gaseous VC (99.5%) was added with a gas tight syringe (200 μL). The cultures were then moved to a shaker (60-80 rpm) in an anaerobic chamber (20±2° C.). Immediately after 5 μmol of ethene was formed in a bottle, 200 μL of the culture was transferred to fresh media (60 mL), in triplicate, and VC was again added (200 μL). The inoculum for the growth study was that formed after exactly 4 μmol of ethene was produced following this second transfer. To compare growth rates on VC, a range in concentration of each inocula (0.1, 0.3, 1, 3, 9 mL) was transferred to fresh media (as above) to result in a liquid volume of 60 mL, and gaseous VC (200 μL) was added to each. […] Hydrogen served as the electron donor and was non-limiting (>3%) in all studies. Headspace samples were periodically removed by syringe (250 μL) for chlorinated ethene analyses.
(§4) The purpose of the second study was to compare dechlorination rates of PCE, TCE and DCE between the three different cultures that grew on VC (Victoria, KB-1/VC and Pinellas). The development of inocula here was performed with VC, just as in the first study. For the growth and substrate utilization experiments, triplicate bottles were set up for each culture containing 1 mL of inoculum and either neat PCE (0.4 μL), neat TCE (0.3 μL), saturated DCE solution (34 μL) or gaseous VC (200 μL). To further investigate TCE removal, bottles (120 mL) were filled with 20 mL of a highly enriched culture of strain VS made from the Victoria culture. Duplicate bottles were supplied with gaseous VC (50 μL on day 0, then 150 μL on day 3) or TCE (0.4 μL neat liquid). Dechlorination was followed until all VC or TCE was converted to ethene (day 12). The change in strain VS concentration during VC and TCE utilization was then determined both by competitive PCR and by an activity procedure evaluated previously for strain VS. In the activity procedure a non-growth limiting concentration of VC (150 μL) along with excess hydrogen is added to a culture and the initial dechlorination rate is measured (over <1 day). A good estimate of strain VS concentration can then be obtained using the previously determined strain VS maximum VC utilization rate (7.8×10^−10 μmol Cl^− (cell·d)^−1). The increase in strain VS concentration during TCE or VC utilization was determined with these two procedures on the culture before and after TCE and VC utilization.
(§5) Comparative dechlorination and growth kinetics. With mixed cultures, the concentration of organisms carrying out a particular reaction is generally unknown and difficult to determine. […]

[2] = system: highly enriched culture of strain VS; assay: Batch dechlorination and growth, highly enriched culture of strain VS; assay type: cell-based, Dehalococcoides species strain VS; settings: for Final VC rate / Final cells: after utilization of the substance; for Final VC rate / Mass dechlorinated: duplicate bottles; for Final cells: duplicates, computed from VC rate; for Initial VC rate: before utilization of the substance, average and range of replicates; for Growth yield by competitive PCR: strain VS grown on the substance
Procedure: as §4
Comparative dechlorination and growth kinetics. With mixed cultures, the concentration of organisms carrying out a particular reaction is generally unknown and difficult to determine. Thus, reaction rates with mixed cultures are generally reported in units that cannot be used for comparative purposes. For example, dechlorination rates have been reported in mass removal rate per microcosm or bottle, per unit liquid volume, per unit of total biomass or per unit of total protein. However, the approach described here allows us to make direct comparisons of basic dechlorination and growth kinetics between cultures. The main parameter used in this comparison is organism maximum growth rate, which is directly related to dechlorination kinetics. The maximum growth rate for each culture was determined from a least-squares model fit to experimental data. For this purpose, the dechlorination of TCE, DCE, and VC was modeled using Monod kinetics with competitive kinetics between the multiple electron acceptors involved in dechlorination (for the case when electron donor is non-rate-limiting):
Modeling approach. The above procedure was utilized to compare VC, DCE and TCE maximum growth rates between the Dehalococcoides like-microorganisms in the three cultures (strain VS, KB-1/VC and Pinellas). Previously determined VC and DCE half-velocity and competitive coefficients were included in this modeling approach (Table 2). Also, a previously determined decay coefficient (0.05 d^−1) for cells growing under optimal conditions (non-limiting electron acceptor and donor) was included. This leaves the maximum growth rates on individual chlorinated ethenes (μV, μD, or μT) as the only fitting parameters, which were determined, together with the 95% confidence interval) using non-linear least-squares fit to the experimental data.
DNA isolation and competitive PCR. For the Victoria, Pinellas, and KB-1/VC genomic DNA was extracted (1 mL) from the inoculum used in the VC growth comparison study and also from cultures in the comparative substrate utilization study following complete TCE dechlorination. DNA was extracted using a DNeasy® tissue system (Qiagen Inc, Valencia, Calif.), following the manufacture's instructions (final volume 200 μL). DNA was extracted from the D. ethenogenes strain 195 culture following dechlorination of DCE. […]

[3] = system: KB-1/VC culture; assay: Batch dechlorination and growth kinetics, KB-1/VC culture; assay type: cell-based, Dehalococcoides-like microorganisms; settings: for Maximum Growth Rate: 95% confidence interval
Excerpt: as §1, §2, §3, §4, §5

Row | SMILES | Maximum Growth Rate [1] | Half velocity coefficient KT ([1]; VS Mixed culture) | Half velocity coefficient KT ([2]; Highly enriched culture) | Maximum Growth Rate ([2]; Highly enriched strain VS culture, 95% confidence interval) | Final VC rate [2] | Final cells [2] | Initial VC rate [2] | Mass dechlorinated [2] | Growth yield by competitive PCR [2] | Half velocity coefficient KT [3] | Maximum Growth Rate [3] | time to form 5 μmol of ethene ([1]; Victoria culture, 200 μL VC) | time to form 5 μmol of ethene ([3]; 200 μL VC)
1 | ClC=C(Cl)Cl [TCE, trichloroethene] | 0.35 ± 0.07 day⁻¹ | 9.0 ± 0.4 µM | 12.4 ± 0.6 µM | 0.35 day⁻¹ and 0.35 ± 0.13 day⁻¹ | 312 µmol·days/L and 204 µmol·days/L | 4.0 × 10^11 cell L^−1 and 2.6 × 10^11 cell L^−1 | 28 ± 2^a nmol (d · L)^−1 | 10.94 µmol and 8.97 µmol | 4.7±0.3×10^8 cell/μmol Cl^− | 10.0 ± 2.0 µM | 0.33 ± 0.06 day⁻¹ |  | 
2 | C=CCl [VC, vinyl chloride] | 0.49 day⁻¹ and 0.49 ± 0.02 day⁻¹ |  |  |  | 228 µmol·days/L and 204 µmol·days/L | 2.9 × 10^11 cell L^−1 and 2.6 × 10^11 cell L^−1 | 28 ± 2^a nmol (d · L)^−1 | 10.39 µmol and 10.52 µmol | 5.2±0.4×10^8 cell/μmol Cl^− |  | 0.42 day⁻¹ and 0.42 ± 0.03 day⁻¹ | 18 days | 18 days
